Read-outs that look alike come from different tables or passages of the source.
Columns and labels:
[1] = system: sebaceous glands in ears of the male Syrian hamster; conditions: cited from earlier work
[2] = system: human sebocytes (sebaceous cells); experiment: inhibition of human sebocyte proliferation in vitro; type: cell-based; conditions: for IC50: read-out: ED50 (amount of compound necessary to inhibit the proliferation of the sebaceous cells by 50% as compared to a control)
Experimental: Sebaceous cells were isolated from adult human sebaceous glands as in J. Invest. Dermatol. 96:341-348 (1991) and cultured on a layer of growth-arrested 3T3 mouse fibroblasts.
The cells were cultured in Iscove's medium containing 10% fetal calf serum and 4 μg/ml dexamethasone.
Cells were plated in medium without 1α-fluoro-25-hydroxy-16-ene-23-yne-cholecalciferol. 24-48 hours after the initial plating, the cultures were given fresh medium containing the compound of the invention. Every 48 hours, the cultures were given fresh medium containing the compound of the invention. On the day of harvesting, the cultures were rinsed with a 0.03% EDTA in PBS, to remove only the 3T3 fibroblasts. The remaining sebocyyte colonies were incubated in 0.05% trypsin/0.03% EDTA to create a single cell suspension of sebocytes. The cells were diluted, mixed vigorously to maintain a single cell suspension, and counted in a hemocytometer.
The compounds tested were handled in the following manner. Stock solutions were made up as 10^-2 M solutions in degassed 100% ethanol and stored at -20° C. in the dark. Solutions were never used after storage of more than one month. During experimental use the solutions, which were aliquoted, were thawed once and used by diluting directly into complete medium to the appropriate concentration, at 10^-6, 10^-7, 10^-8 M and 10^-9. The compounds tested were
The results are summarized in table 1 as the amount of compound necessary to inhibit the proliferation of the sebaceous cells by 50% as compared to a control (ED50). The control was a culture treated with diluent only.

[3] = system: hamster ear sebaceous gland; experiment: hamster ear sebaceous gland model, oral study; type: in vivo, male Golden Syrian hamsters; conditions: 4 weeks
Experimental: The purpose of the test was to evaluate the effect of the inventive compound on the sebaceous glands of the hamster ear after oral administration of the compound. 200 μl of the compound of the invention dissolved in Tween 20/water/ethanol […] administered daily (5 days per week) by garage to male Golden Syrian hamsters. The animals were sacrificed at 4 weeks and the ears were processed for histological evaluation. One ear was fixed with 10% buffered formalin, processed for paraffin embedding, sectioned, and stained with hematoxyline and eosin (H&E). The area of the sebaceous glands was measured on histologically prepared cross-sections of the ear by image analysis using a Leitz TAS Plus system. Data is given as the average areas of 48 sebaceous glands per dose.

[4] = system: hamster ear sebaceous gland; experiment: hamster ear sebaceous gland model, topical study; type: in vivo; conditions: 4 weeks, vs control
Experimental: The compound was evaluated for topical anti-acne activity in the hamster ear sebaceous gland model. For these studies, the compound was dissolved in acetone. Fifty (50) μl of the drug-containing solution was applied daily (5 days per week) to the dorsal side of the right ear of the hamster. Control hamsters received 50 μl of acetone. The animals were sacrificed after 4 weeks. The ears were removed and processed for histological evaluation. The ventral surface was separated from the rest of the ear. A 2 mm punch was removed 5 mm from the tip of the ear and stained in 0.1% Sudan Black B dissolved in 100% propylene glycol overnight. After destaining, the areas of the sebaceous glands were determined from the cross sections by image analysis using a Donsato Image Analysis System. The data was expressed as a percentage change from control animals for 80-120 sebaceous glands per dose.

| Structure (SMILES) | size of sebaceous glands in ears (result in words) [1] | IC50 ([2]; Homo sapiens) [nM] | % Change in Hamster Ear Sebaceous Gland Size Cross Section Analysis ([3]; 0.05 μg/kg) [%] | % Change in Hamster Ear Sebaceous Gland Size Cross Section Analysis ([3]; 0.5 μg/kg) [%] | % Change in Hamster Ear Sebaceous Gland Size Cross Section Analysis ([3]; 5.0 μg/kg) [%] | % Change in Hamster Ear Sebaceous Gland Size Cross Section Analysis ([3]; 50.0 μg/kg) [%] | IC50 ([2]; human sebocytes in vitro, control treated with diluent only) [nM] | human sebocyte proliferation in vitro (result in words) ([2]; in vitro) | Change in Hamster Ear Sebaceous Gland Size Cross Section Analysis ([4]; 0.001 μg/animal, ns = not statistically significant from controls) [%] | Change in Hamster Ear Sebaceous Gland Size Cross Section Analysis ([4]; 0.01 μg/animal, ns = not statistically significant from controls) [%] | Change in Hamster Ear Sebaceous Gland Size Cross Section Analysis ([4]; 0.1 μg/animal, ns = not statistically significant from controls) [%] | Change in Hamster Ear Sebaceous Gland Size Cross Section Analysis ([4]; 1.0 μg/animal, not marked ns) [%] |
| --- | --- | --- | --- | --- | --- | --- | --- | --- | --- | --- | --- | --- |
| C=C1/C(=C\C=C2/CCC[C@]3(C)[C@@H]([C@H](C)CCCC(C)(C)O)CC[C@@H]23)C[C@@H](O)C[C@@H]1O [1,25-dihydroxycholecalciferol, reference compound] | reducing the size of sebaceous glands in ears of the male Syrian hamster | 50 |  |  |  |  |  |  |  |  |  |  |
| C=C1/C(=C\C=C2/CCC[C@]3(C)C([C@H](C)CC#CC(C)(C)O)=CC[C@@H]23)C[C@@H](O)C[C@@H]1F [1α-fluoro-25-hydroxy-16-ene-23-yne-cholecalciferol] |  |  | -28 | -28 | -34 | -35 | 1 | inhibits human sebocyte proliferation in vitro | -3 | -18 | -28 | -40 |

From patent US5384314A, “1α-fluoro-25-hydroxy-16-ene-23-yne-cholecalciferol” (Hoffmann-La Roche Inc., priority 1994, dated 1995)
